Cc1c([N+](=O)[O-])c(C)c([N+](=O)[O-])c(C(C)(C)C)c1[N+](=O)[O-]
solubility (mole fraction)
Settings	in DMAc	in THF	in cyclohexane	in ethanol	in ethyl acetate	in isopropanol	in methanol	in n-butanol	in n-heptane	in n-hexane
278.15 K	0.0918	0.0786	0.00467	0.00168	0.0953	0.00128	0.00185	0.00245	0.00262	0.00225
283.15 K	0.112	0.0889	0.00588	0.00207	0.115	0.00165	0.00234	0.00308	0.00321	0.00284
288.15 K	0.134	0.1	0.00739	0.00254	0.136	0.00211	0.00295	0.00374	0.00402	0.00359
293.15 K	0.156	0.112	0.00925	0.00311	0.158	0.00269	0.00369	0.0045	0.00496	0.00437
298.15 K	0.179	0.126	0.0116	0.00378	0.182	0.00343	0.00459	0.00553	0.00609	0.00557
303.15 K	0.205	0.139	0.0145	0.00458	0.207	0.00437	0.00569	0.00666	0.00752	0.00685
308.15 K	0.232	0.156	0.0182	0.00552	0.233	0.00557	0.00704	0.00806	0.00931	0.00842
313.15 K	0.263	0.173	0.0229	0.00663	0.262	0.00713	0.00868	0.00974	0.0114	0.0104

Source: BigSolDB 2.1
